# Measured values taken from paper PMC8786148, “The effects of magainin 2-derived and rationally designed antimicrobial peptides on Mycoplasma pneumoniae” (PLoS ONE, 2022).
# Marks after values point to notes of the source that are not given here.
# Experiments:
# Pasteurella multocida = test system: Pasteurella multocida; set-up: method as in PMID 29771981; details: bovine pathogen; cited from earlier work
# Mannheimia haemolytica = test system: Mannheimia haemolytica; set-up: method as in PMID 29771981; details: bovine pathogen; cited from earlier work
# M. bovis = details: cited from earlier work
# Mycoplasma pneumoniae FH [1] = test: Killing assay, strain FH; details: for Killing assay result compared with saline / Cell numbers (CFU/mL) after treatment with antimicrobial peptides, killing assay: 30 μmol/L AMP, 3 days; for Killing assay result compared with saline: Welch's t test; for Cell numbers (CFU/mL) after treatment with antimicrobial peptides, killing assay / CFU/mL after treatment, killing assay: triplicate, mean; for Cell numbers (CFU/mL) after treatment with antimicrobial peptides, killing assay: saline 3.59×10^6; for CFU/mL after treatment, killing assay: 3 d at 37°C
# [2] = test system: M. pneumoniae strains FH, M52, Mac, Bru, and M129-B7; test: Propidium iodide (PI) uptake assay, membrane disruption; format: cell-based, Mycoplasma pneumoniae; details: five strains; 10 μmol/L AMP; PI 5 μg/mL in PBS; read every 2 min up to 20 min; triplicate
# Experimental: We performed the PI uptake assays based on the previously described method with modification for M. pneumoniae. M. pneumoniae strains FH, M52, Mac, Bru, and M129-B7 were cultured as described above. Briefly, the 90 mL culture was done in PPLO-based medium for 6 days to observe the medium color change from red to yellow. The mycoplasma in the culture medium was centrifuged at 11,740g for 30 min at 4°C, and the precipitation was suspended in 20 mL phosphate buffered saline (PBS) by passing through a 60 mm-length 25-gauge needle (Top Corporation, Tokyo, Japan) three times. The suspension was centrifuged again at 11,740g for 30 min at 4°C, and 2.25 mL PBS was added to the precipitation. The 2× mycoplasma suspension was prepared by passing through a 60 mm-length 25-gauge needle five times. When using heat-killed M. pneumoniae (HKMp), the 2× suspension was heated at 95°C for 10 min. The 2× PI assay reaction mix based on PBS containing 20 μmol/L of an antimicrobial peptide or saline, and 10 μg/mL PI (Dojindo, Tokyo, Japan). Each assay was performed with a 96-well black flat-bottomed plate (PerkinElmer, Waltham, MA, USA) using a final cell volume of 100 μL prepared by mixing 2× mycoplasma suspension and 2× PI assay reaction mix at 1:1 in volume ratio. The intercalation fluorescence of PI was measured by using an Infinite 200 Pro F Plex microplate reader (Tecan, Zürich, Switzerland) every 2 min, with an excitation filter at 535 nm (half width: 25 nm) and an emission filter at 620 nm (half width: 20 nm). The averages and standard deviations of the fluorescent intensities was calculated, and normalised by an average fluorescence between 10 and 20 min of HKMp as 100% relative fluorescence, and by a minimum average fluorescence between 0 and 20 min of whole data as 0% relative fluorescence.
# Mycoplasma pneumoniae FH [3] = test: Biofilm assay (crystal violet, absorbance at 550 nm), strain FH; details: initial 10^5 CFU/mL, 0% CO2, 6-8 days at 37°C; for Concentration with statistically significant effect in the biofilm assay: p < 0.005, Shirley-Williams test
# [4] = previously reported; cited from earlier work
# Mycoplasma pneumoniae FH [5] = test: Colorimetric assay (absorbance at 560 nm), strain FH; details: initial 10^5 CFU/mL
# Histophilus somni = test system: Histophilus somni; set-up: method as in PMID 29771981; details: bovine pathogen; cited from earlier work
# [6] = test system: Mycoplasma pneumoniae Mac; test: Killing assay, strain Mac; details: 3 days; for Titre (CFU/mL), killing assay: initial 10^6 CFU/mL, triplicate, mean
# [7] = test system: Mycoplasma pneumoniae Bru; test: Killing assay, strain Bru; details: 3 days; for Titre (CFU/mL), killing assay: initial 10^6 CFU/mL, triplicate, mean
# [8] = test system: Mycoplasma pneumoniae M52; test: Killing assay, strain M52; details: 3 days; for Titre (CFU/mL), killing assay: initial 10^6 CFU/mL, triplicate, mean
# [9] = test system: Mycoplasma pneumoniae Mac; test: Colorimetric and biofilm assays, strain Mac
# [10] = test system: Mycoplasma pneumoniae M52; test: Colorimetric and biofilm assays, strain M52
# [11] = test system: Mycoplasma pneumoniae M129-B7; test: Killing assay, strain M129-B7; details: 3 days; for Titre (CFU/mL), killing assay: initial 10^6 CFU/mL, triplicate, mean
# [12] = test system: Mycoplasma pneumoniae M129-B7; test: Colorimetric and biofilm assays, strain M129-B7; format: cell-based
# [13] = test system: Mycoplasma pneumoniae Bru; test: Colorimetric and biofilm assays, strain Bru
# Escherichia coli = test system: Escherichia coli; set-up: method as in PMID 28789896, PMID 31303986, PMID 33369262; details: previously reported; cited from earlier work
# Pseudomonas aeruginosa = test system: Pseudomonas aeruginosa; set-up: method as in PMID 28789896, PMID 31303986, PMID 33369262; details: previously reported; cited from earlier work
# Staphylococcus aureus = test system: Staphylococcus aureus; set-up: method as in PMID 28789896, PMID 31303986, PMID 33369262; details: previously reported; cited from earlier work
# [14] = test system: four strains of M. pneumoniae; test: Biofilm assay, four strains taken together; details: four strains (Bru, M129-B7, Mac, M52); inferred from enhanced biofilm production below 30 μmol/L
# [15] = test system: Staphylococcus epidermidis; set-up: method as in PMID 28789896, PMID 31303986, PMID 33369262; details: previously reported; cited from earlier work
# [16] = colorimetric and biofilm assays
# [17] = up to 30 μmol/L, Shirley-Williams test
compound,measurement,setting,value
"H-TVIEVASKMCSKMRLLKGLCKSITKRFLRR-NH2 [NK2A, reference compound]",Effective concentration against Pasteurella multocida,Pasteurella multocida,5 µmol/L
same,Effective concentration against Mannheimia haemolytica,Mannheimia haemolytica,5 µmol/L
same,Effective concentration against M. bovis,M. bovis,20 µmol/L
same,Killing assay result compared with saline,Mycoplasma pneumoniae FH [1]; p < 0.005,limited influence on the growth
same,"Cell numbers (CFU/mL) after treatment with antimicrobial peptides, killing assay",Mycoplasma pneumoniae FH [1]; initial 10^6 CFU/mL,2.87×10^6 CFU/mL
same,PI fluorescence compared with live Mp without peptide,[2],the PI fluorescence arose
same,Concentration with statistically significant effect in the biofilm assay,Mycoplasma pneumoniae FH [3],30 µmol/L
same,Haemolysis (concentration with haemolytic effect),[4],5 µmol/L
same,Effect in the colorimetric assay,"Mycoplasma pneumoniae FH [5]; 0% CO2, up to 30 μmol/L",no difference
same,Effective concentration against Histophilus somni,Histophilus somni,5 µmol/L
C[C@@H]1CN(c2c(F)c(N)c3c(=O)c(C(=O)O)cn(C4CC4)c3c2F)C[C@H](C)N1 [Sparfloxacin],"Concentration with statistically significant result, killing assay",[6]; p < 0.005,0.0625 µg/mL
same,"Titre (CFU/mL), killing assay",[6]; sparfloxacin 0.0156 μg/mL,2.66×10^6 CFU/mL
same,"Titre (CFU/mL), killing assay",[6]; sparfloxacin 0.0313 μg/mL,1.86×10^6 CFU/mL
same,"Titre (CFU/mL), killing assay",[6]; sparfloxacin 0.0625 μg/mL,3.88×10^5 ^a CFU/mL
same,"Titre (CFU/mL), killing assay",[6]; sparfloxacin 0.125 μg/mL,2.17×10^4 ^a CFU/mL
same,"Titre (CFU/mL), killing assay",[6]; sparfloxacin 0.25 μg/mL,2.90×10^3 ^a CFU/mL
same,"Concentration with statistically significant result, killing assay",[7]; p < 0.005,0.0625 µg/mL
same,"Titre (CFU/mL), killing assay",[7]; sparfloxacin 0.0156 μg/mL,2.52×10^6 CFU/mL
same,"Titre (CFU/mL), killing assay",[7]; sparfloxacin 0.0313 μg/mL,1.80×10^6 CFU/mL
same,"Titre (CFU/mL), killing assay",[7]; sparfloxacin 0.0625 μg/mL,8.41×10^5 ^a CFU/mL
same,"Titre (CFU/mL), killing assay",[7]; sparfloxacin 0.125 μg/mL,1.52×10^5 ^a CFU/mL
same,"Titre (CFU/mL), killing assay",[7]; sparfloxacin 0.25 μg/mL,1.81×10^4 ^a CFU/mL
same,"Change in CFU, killing assay with 1 h incubation","Mycoplasma pneumoniae FH [1]; 1 h treatment, SPFX 0.0625-0.25 μg/mL, AMPs 30 μmol/L, S3 Fig",no change in the CFU values
same,"Concentration with significant difference in CFU, killing assay","Mycoplasma pneumoniae FH [1]; initial 10^6 CFU/mL, 3 d incubation, p < 0.005",above 0.0625 μg/mL
same,"CFU/mL after treatment, killing assay","Mycoplasma pneumoniae FH [1]; sparfloxacin 0.0156 μg/mL, initial 10^6 CFU/mL",6.57×10^6 CFU/mL
same,"CFU/mL after treatment, killing assay","Mycoplasma pneumoniae FH [1]; sparfloxacin 0.0313 μg/mL, initial 10^6 CFU/mL",2.33×10^6 CFU/mL
same,"CFU/mL after treatment, killing assay","Mycoplasma pneumoniae FH [1]; sparfloxacin 0.0625 μg/mL, initial 10^6 CFU/mL",1.39×10^5 ^a CFU/mL
same,"CFU/mL after treatment, killing assay","Mycoplasma pneumoniae FH [1]; sparfloxacin 0.125 μg/mL, initial 10^6 CFU/mL",1.30×10^4 ^a CFU/mL
same,"CFU/mL after treatment, killing assay","Mycoplasma pneumoniae FH [1]; sparfloxacin 0.25 μg/mL, initial 10^6 CFU/mL",5.50×10^3 ^a CFU/mL
same,"Concentration with statistically significant result, killing assay",[8]; p < 0.005,0.0625 µg/mL
same,"Titre (CFU/mL), killing assay",[8]; sparfloxacin 0.0156 μg/mL,2.95×10^6 CFU/mL
same,"Titre (CFU/mL), killing assay",[8]; sparfloxacin 0.0313 μg/mL,2.02×10^6 CFU/mL
same,"Titre (CFU/mL), killing assay",[8]; sparfloxacin 0.0625 μg/mL,8.00×10^5 ^a CFU/mL
same,"Titre (CFU/mL), killing assay",[8]; sparfloxacin 0.125 μg/mL,1.99×10^5 ^a CFU/mL
same,"Titre (CFU/mL), killing assay",[8]; sparfloxacin 0.25 μg/mL,3.24×10^4 ^a CFU/mL
same,Concentration that completely attenuated the growth,[9]; [16],0.25 µg/mL
same,Concentration that completely attenuated the growth,[10]; [16],0.25 µg/mL
same,"Concentration with statistically significant result, killing assay",[11]; p < 0.005,0.0625 µg/mL
same,"Titre (CFU/mL), killing assay",[11]; sparfloxacin 0.0156 μg/mL,3.57×10^6 CFU/mL
same,"Titre (CFU/mL), killing assay",[11]; sparfloxacin 0.0313 μg/mL,2.26×10^6 CFU/mL
same,"Titre (CFU/mL), killing assay",[11]; sparfloxacin 0.0625 μg/mL,8.73×10^5 ^a CFU/mL
same,"Titre (CFU/mL), killing assay",[11]; sparfloxacin 0.125 μg/mL,1.31×10^5 ^a CFU/mL
same,"Titre (CFU/mL), killing assay",[11]; sparfloxacin 0.25 μg/mL,1.12×10^4 ^a CFU/mL
same,Concentration that completely attenuated the growth,"[12]; strain M129-B7, colorimetric and biofilm assays",0.25 µg/mL
same,"Concentration giving complete repression of the growth, biofilm assay","Mycoplasma pneumoniae FH [3]; crystal violet, absorbance 550 nm",> 0.25 µg/mL
same,Concentration that completely attenuated the growth,[13]; [16],0.25 µg/mL
same,"Concentration giving complete repression of the growth, colorimetric assay","Mycoplasma pneumoniae FH [5]; 0% CO2, 6-8 days at 37°C, absorbance 560 nm",higher than 0.0625 μg/mL
"H-KKKKKKKKKGGGLLALLALLA-NH2 [Block, rationally designed AMP, helical structure and positions of positively charged lysine residues]","Titre (CFU/mL), killing assay","[6]; AMP 30 μmol/L, saline 4.19×10^6",4.30×10^5 ^b CFU/mL
same,"Titre (CFU/mL), killing assay","[7]; AMP 30 μmol/L, saline 3.48×10^6",2.32×10^5 ^b CFU/mL
same,"MIC, Gram-negative, E. c.",Escherichia coli,6.25 µM
same,"MIC, Gram-negative, P. a.",Pseudomonas aeruginosa,6.25 µM
same,Killing assay result compared with saline,Mycoplasma pneumoniae FH [1]; p < 0.005,significant difference
same,"Cell numbers (CFU/mL) after treatment with antimicrobial peptides, killing assay",Mycoplasma pneumoniae FH [1]; initial 10^6 CFU/mL,5.91×10^5 CFU/mL
same,"Titre (CFU/mL), killing assay","[8]; AMP 30 μmol/L, saline 3.62×10^6",3.89×10^5 ^b CFU/mL
same,"MIC, Gram-positive, S. a.",Staphylococcus aureus,12.5 µM
same,PI fluorescence compared with live Mp without peptide,[2],highest fluorescence
same,Concentration of anti-Mp effect indicated by the biofilm assay,[14],> 30 µmol/L
same,Biofilm formation at 16 μmol/L,"[9]; biofilm assay, 16 μmol/L",enhancement of biofilm formation
same,Biofilm amount at 30 μmol/L,"[9]; biofilm assay, 30 μmol/L",slight drop in the biofilm amount
same,Effect in the biofilm assay,[9]; [17],no statistically significant effect
same,Biofilm formation at 16 μmol/L,"[10]; biofilm assay, 16 μmol/L",enhancement of biofilm formation
same,Biofilm amount at 30 μmol/L,"[10]; biofilm assay, 30 μmol/L",no effect
same,Effect in the biofilm assay,[10]; [17],no statistically significant effect
same,"Titre (CFU/mL), killing assay","[11]; AMP 30 μmol/L, saline 3.79×10^6",4.84×10^5 ^b CFU/mL
same,Biofilm formation at 16 μmol/L,"[12]; strain M129-B7, biofilm assay, 16 μmol/L",enhancement of biofilm formation
same,Effect in the biofilm assay,"[12]; strain M129-B7, up to 30 μmol/L, Shirley-Williams test",no statistically significant effect
same,Biofilm amount at 30 μmol/L,"[12]; strain printed B129-B7, biofilm assay, 30 μmol/L",no effect
same,Concentration with statistically significant effect in the biofilm assay,Mycoplasma pneumoniae FH [3],30 µmol/L
same,Biofilm formation at 16 μmol/L,"[13]; biofilm assay, 16 μmol/L",enhancement of biofilm formation
same,Biofilm amount at 30 μmol/L,"[13]; biofilm assay, 30 μmol/L",slight drop in the biofilm amount
same,Effect in the biofilm assay,[13]; [17],no statistically significant effect
same,"MIC, Gram-positive, S. e",[15],6.25 µM
